# Assay results as given in patent US20220195384A1, “COMPOSITION FOR PROMOTING PRODUCTION OF STEM CELL-DERIVED EXOSOMES AND INCREASING STEMNESS” (BREXOGEN INC., priority 2019, published 2022).
# How the values were obtained:
# Assay type in all cases: cell-based
# [1] = tested on: primary umbilical cord-derived mesenchymal stem cells; assay: Content of exosomal RNA (NanoDrop); conditions: 10 ng/mL interferon-γ pretreatment one week
# Description: (§1) In a culture medium [high glucose DMEM (Gibco, Cat no. 11995-065); 10% fetal bovine serum (HyClone), 1% MEM non-essential amino acids solution (100×) (Gibco, Cat no. 11140-050)] containing 20 nM of exendin-4, primary umbilical cord-derived mesenchymal stem cells (ATCC No. PCS-500-010; Lot No. 63822428) were cultured for one week.
# (§2) After completion of culturing, the mesenchymal stem cells pretreated with exendin-4 were washed and additionally cultured for 72 hours in a culture medium supplemented with 10% fetal bovine serum (FBS) free of exosomes. The reason of employing exosome-free FBS was to prevent FBS-derived exosomes other than those secreted from the cells from being incorporated because generally used FBS contained a large amount of exosomes derived from bovine serum.
# (§3) After 72 hours of culturing, the culture medium in which the pretreated mesenchymal stem cells were cultured was taken and centrifuged at 300×g for 10 min to remove residual cells and cell debris. The supernatant was filtered through a 0.22 μm filter, followed by centrifugation at 10,000×g and 4° C. for 70 min in a high-speed centrifuge. The supernatant thus obtained was subjected again to ultracentrifugation at 100,000×g and 4° C. for 90 min. The exosomes obtained as a pellet were diluted in PBS (phosphate buffered saline) before use in the following experiments.
# as §1, with “10” for “20”, “PMA,” for “exendin-4,”
# as §2, with “PMA” for “exendin-4”
# as §1, with “10 ng/mL interferon-γ,” for “20 nM of exendin-4,”
# as §2, with “interferon-γ” for “exendin-4”
# as §1, with “10 μM” for “20 nM”, “tetrandrine,” for “exendin-4,”
# as §2, with “tetrandrine” for “exendin-4”, “serum. […]” for “serum.”
# [2] = tested on: primary umbilical cord-derived mesenchymal stem cells; assay: Content of exosomal protein (Bradford analysis, 595 nm); conditions: 10 ng/mL interferon-γ pretreatment one week
# Description: as §1, §2, §3
# as §1, with “10” for “20”, “PMA,” for “exendin-4,”
# as §2, with “PMA” for “exendin-4”
# as §1, with “10 ng/mL interferon-γ,” for “20 nM of exendin-4,”
# as §2, with “interferon-γ” for “exendin-4”
# as §1, with “10 μM” for “20 nM”, “tetrandrine,” for “exendin-4,”
# as §2, with “tetrandrine” for “exendin-4”, “serum. […]” for “serum.”
# [3] = tested on: primary umbilical cord-derived mesenchymal stem cells; assay: Number of exosomes by nanoparticle tracking assay (NanoSight NS300); conditions: 10 ng/mL interferon-γ pretreatment one week
# Description: as §1, §2, §3
# as §1, with “10” for “20”, “PMA,” for “exendin-4,”
# as §2, with “PMA” for “exendin-4”
# as §1, with “10 ng/mL interferon-γ,” for “20 nM of exendin-4,”
# as §2, with “interferon-γ” for “exendin-4”
# as §1, with “10 μM” for “20 nM”, “tetrandrine,” for “exendin-4,”
# as §2, with “tetrandrine” for “exendin-4”, “serum. […]” for “serum.”
# [4] = tested on: primary umbilical cord-derived mesenchymal stem cells; assay: Stem cell proliferation (CCK, absorbance 450 nm) after pretreatment; conditions: 10 ng/mL interferon-γ pretreatment one week; 24 h culture, CCK 4 h
# Description: as §1
# as §1, with “10” for “20”, “PMA,” for “exendin-4,”
# as §1, with “10 ng/mL interferon-γ,” for “20 nM of exendin-4,”
# as §1, with “10 μM” for “20 nM”, “tetrandrine,” for “exendin-4,”
# as §1, with “10 μg/mL hyaluronic acid,” for “20 nM of exendin-4,”
# as §1, with “30” for “20”, “substance P,” for “exendin-4,”
# as §1, with “10” for “20”, “resveratrol,” for “exendin-4,”
# as §1, with “10 μM” for “20 nM”, “lanifibranor,” for “exendin-4,”
# (§4) Mesenchymal stem cells and the exendin-4-pretreated mesenchymal stem cells of the Example were each seeded at a density of 3,000 cells/well into 96-well plates containing 100 μL of a culture medium [high glucose DMEM (Gibco, Cat no. 11995-065), 10% fetal bovine serum (HyClone), 1% MEM non-essential amino acids solution (100×) (Gibco, Cat no. 11140-050)] per well and cultured for 24 hours in a CO2 incubator. Then, CCK solution (10 μL/well) was added, and incubation was continued for 4 hours in the CO2 incubator, followed by reading absorbance at a wavelength of 450 nm (420-480 nm) to determine proliferation.
# as §4, with “PMA-pretreated” for “exendin-4-pretreated”, “proliferation. […]” for “proliferation.”
substance,measurement,setting,value
interferon-γ [IFNγ MSC-Exo = exosomes of IFNγ-treated mesenchymal stem cells],fold greater exosomal RNA than non-treated mesenchymal stem cells,[1],about 5.0 fold
same,"Exosomal RNA, yield per 10^6 cells","[1]; then 72 h exosome-free FBS medium, non-treated 31.0",155.0 ng
same,fold greater exosomal proteins than non-treated mesenchymal stem cells,[2],about 6.2 fold
same,"Exosomal protein, yield per 10^6 cells","[2]; then 72 h exosome-free FBS medium, non-treated 2.0",12.4 ug
same,fold more exosomes than non-treated mesenchymal stem cells,[3],about 6.7 fold
same,"No. of exosome particles, yield per 10^6 cells","[3]; then 72 h exosome-free FBS medium, non-treated 2.3",15.4 10^9
same,increase in proliferation relative to non-treated mesenchymal stem cells,[4],about 242%
same,proliferation ratio relative to non-treated mesenchymal stem cells (1),[4],2.42
